Data from the NIST ThermoML archive (doi:10.1016/j.jct.2012.01.007).
Values joined by “and” are separate entries in the source; they are usually repeats but may differ in a detail not shown here. Equal values may be shown once.

Assay: osmotic coefficient (dimensionless); mn = molality of the nth substance listed, in mol/kg
Conditions: 298.15 K, Liquid, isopiestic method

CCCCCC[n+]1ccc(N(C)C)cc1.F[B-](F)(F)F [4-(dimethylamino)-1-hexylpyridinium tetrafluoroborate] + CCO
Conditions	osmotic coefficient
m1 = 0	0.999
m1 = 0.3863	0.523
m1 = 0.4915	0.435
m1 = 0.6139	0.417
m1 = 0.7149	0.447
m1 = 0.7716	0.429
m1 = 1.225	0.413 and 0.431
m1 = 1.39	0.375
m1 = 1.495	0.39
m1 = 1.778	0.35
m1 = 1.799	0.409
m1 = 2.283	0.376
m1 = 2.753	0.378
m1 = 3.718	0.351
m1 = 4.128	0.37
m1 = 5.581	0.384

CCCC[n+]1ccc(N(C)C)cc1.F[B-](F)(F)F [4-(dimethylamino)-1-butylpyridinium tetrafluoroborate] + CCO
Conditions	osmotic coefficient
m1 = 0	1
m1 = 0.3225	0.606
m1 = 0.333	0.526
m1 = 0.3357	0.6
m1 = 0.3459	0.506
m1 = 0.4422	0.468
m1 = 0.4806	0.429 and 0.445
m1 = 0.4942	0.418
m1 = 0.5101	0.42 and 0.404
m1 = 0.6548	0.383
m1 = 0.7459	0.394
m1 = 0.8064	0.365
m1 = 0.9658	0.343
m1 = 1.075	0.327
m1 = 1.154	0.339
m1 = 1.195	0.318
m1 = 1.289	0.325
m1 = 1.393	0.322
m1 = 1.613	0.321
m1 = 1.945	0.304
m1 = 2.716	0.316
m1 = 3.676	0.336
m1 = 3.763	0.326
m1 = 5.468	0.283
m1 = 7.248	0.218

CCCCC[n+]1ccc(N(C)C)cc1.F[B-](F)(F)F [4-(dimethylamino)-1-pentylpyridinium tetrafluoroborate] + CCO
Conditions	osmotic coefficient
m1 = 0	0.999
m1 = 0.4148	0.513
m1 = 0.4808	0.455
m1 = 0.5469	0.468
m1 = 0.568	0.397
m1 = 0.6869	0.376
m1 = 0.8468	0.359
m1 = 0.9582	0.335
m1 = 1.291	0.38
m1 = 1.757	0.331
m1 = 1.899	0.327
m1 = 2.515	0.327
m1 = 4.304	0.283
m1 = 5.313	0.288
m1 = 7.334	0.301
